# In PMC10683482, “Offsetting Low-Affinity Carbohydrate Binding with Covalency to Engage Sugar-Specific Proteins for Tumor-Immune Proximity Induction” (ACS Central Science, 2023):
# Read-outs that look alike come from different tables or passages of the source.
# Tested on: serum polyclonal antirhamnose antibodies (human IgG)
# Assay: BLI affinity of rhamnose probes for polyclonal human IgG
# Assay type: binding
# Conditions: for kon: anti-rhamnose assumed 3% of total IgG; for koff: dissociation in 100 mM L-rhamnose
# From the text: We began by synthesizing antirhamnose affinity probes consisting of α-O/α-S and β-S rhamnose glycosides functionalized with a propargyl group for CuAAC-mediated coupling to a biotin TBD (compounds 1–3, Figure 1A and Scheme S1). This enabled rhamnose immobilization onto streptavidin surfaces and subsequent antibody binding studies. We used biolayer interferometry (BLI) to estimate and compare the apparent affinity of serum polyclonal antirhamnose antibodies for each rhamnose affinity probe (Figure 1B). […] Next, biosensors were submerged in a buffer containing free rhamnose competitor, and dissociation kinetics were measured (Figure 1B, Dissociation). The dissociation buffer contained 100 mM rhamnose competitor to inhibit avidity-based antibody rebinding, which interferes with koff measurements. […] In the context of proximity-inducing molecule development, this low monovalent sugar-binding affinity will ultimately limit ternary complex formation. […] The confirmation of low affinity binding also supports why multivalency has been historically required to efficiently engage antirhamnose antibodies for tumor-immune proximity induction and engage sugar binding receptors in general.
# Figure 1 Affinity determination of endogenous and monoclonal antibody sources for L-rhamnose glycoside variants. A. Chemical structures of rhamnose affinity probes. B/C. Approximation of antirhamnose antibody binding affinity for probes 1–3 using biolayer interferometry. B. Purified human serum IgG is used to estimate the affinity of endogenous polyclonal serum antirhamnose antibodies for each affinity probe 1–3. C. Monoclonal anti-23F antibody is used to estimate the potential affinity of vaccine-induced antirhamnose antibodies for each affinity probe 1–3. […] Association was monitored for 900 (B) or 600 (C) seconds. The loaded biosensor probe was then dipped into a dissociation solution of 100 mM L-rhamnose for 600 s. Association curves were fit to a two-phase association model in GraphPad Prism using Kfast to calculate kon. Dissociation curves were similarly fit to a two-phase decay using Kfast to calculate koff. TEXT PRINTED IN THE PICTURE: (B) no label printed: Polyclonal Human IgG: Kd ≈ 7 x10^-5 M | (C) no label printed: Monoclonal Anti-23F: Kd ≈ 6 x10^-6 M DOUBTS OF THE COPYIST ABOUT THIS PICTURE: Panel B, Kd ≈ 7 x10^-5 M: printed once in the plot with no link to a single curve, so it is unclear which of (1) α–O, (2) α–S and (3) β–S it applies to / Panel C, Kd ≈ 6 x10^-6 M: printed once in the plot with no link to a single curve, so it is unclear which of (1) α–O, (2) α–S and (3) β–S it applies to […]
# General Notes and Materials […]
# Biolayer Interferometry (BLI) General notes and Materials
# IgG from human serum was purchased from Innovative Research (IHUI GGAP1000MG). Anti -23F antibody was purchased fr om Creative Biolabs (PABX -173). Biolayer Interferometry (BLI) was conducted using a ForteBio Octet Red96, and streptavidin biosensors (Sartorius - 18-5019) or ProG biosensors (Sartorius – 18-5082). For quench, a 5% skim milk (Nestle Carnation Instant Skim Milk) solution in 1X kinetics buffer was used. The instrument was set at 25 °C, with 1000 RPM, and acquisition rate of 5 Hz.
# Each well of a black well plate (Greiner Bio -One - 655086) was filled with 200 µL of appropriate solution.
# Dissociation buffer was comprised of L-rhamnose (100 mM, Sigma Aldrich – R3875-10G) in 1X kinetics buffer to reduce avidity contribution to dissociation rate (koff).
# SDS-PAGE General notes and Materials […]
# Carboxyfluorescein was purchased from Sigma Aldrich (21877 -5G-F). IgG from human serum was purchased from Innovative Research (IHUIGGAP1000MG). Anti -23F antibody was purchased from Creative Biolabs (PABX -173). Laemellie Buffer (2x) was purchased from Sigma Aldrich (S3401 -10VL).
# Pre-cast Tris-Glycine Gels (4-20%) were purchased from Fisher Scientific (XP04202BOX). Standard protein ladder was purchased from Bio Rad (1610363). […]
# [1] = average of three IgG concentrations, read-out: Avg Kd
SMILES,kon (26.2 µM IgG),koff (26.2 µM IgG),"Kd (26.2 µM IgG, read-out: Kd)",kon (52.5 µM IgG),koff (52.5 µM IgG),"Kd (52.5 µM IgG, read-out: Kd)",kon (105 µM IgG),koff (105 µM IgG),"Kd (105 µM IgG, read-out: Kd)",Kd [1]
C[C@@H]1O[C@@H](SCc2cn(CCOCCNC(=O)OCCOCCOCCOCCOCCOCCOCCOCCNC(=O)CCCC[C@@H]3SC[C@@H]4NC(=O)N[C@@H]43)nn2)[C@H](O)[C@H](O)[C@H]1O [compound 2],21981 M⁻¹ s⁻¹,1.103 s⁻¹,50 µM,14298 M⁻¹ s⁻¹,0.97 s⁻¹,68 µM,8194 M⁻¹ s⁻¹,0.8262 s⁻¹,101 µM,73 ± 26 µM
C[C@@H]1O[C@@H](OCc2cn(CCOCCNC(=O)OCCOCCOCCOCCOCCOCCOCCOCCNC(=O)CCCC[C@@H]3SC[C@@H]4NC(=O)N[C@@H]43)nn2)[C@H](O)[C@H](O)[C@H]1O [compound 1],20749 M⁻¹ s⁻¹,1.199 s⁻¹,58 µM,13810 M⁻¹ s⁻¹,1.112 s⁻¹,81 µM,8235 M⁻¹ s⁻¹,1.058 s⁻¹,128 µM,89 ± 36 µM
